Reference: the NIST ThermoML archive (doi:10.1021/je900131q)
Where “and” joins values, the source holds several entries; their conditions need not be identical. Equal entries are not always repeated.

Conditions: Fluid (supercritical or subcritical phases); for mass density: Buoyancy - hydrostatic balance with magnetic suspension - one sinker; for viscosity: Vibrating wire viscometer

N#N [nitrogen]
Conditions	mass density	viscosity [mPa·s]
293.11 K, 1737.3 kPa	20.04 kg/m3	0.01776
293.11 K, 8684.1 kPa	100.062 kg/m3	0.01931
293.11 K, 12288 kPa	140.108 kg/m3	0.02039
293.12 K, 3456.5 kPa	39.956 kg/m3	0.01807
293.12 K, 5188.4 kPa	60.007 kg/m3	0.01843
293.12 K, 6932.1 kPa	80.084 kg/m3	0.01884
293.12 K, 16079 kPa	180.081 kg/m3	0.02168
293.12 K, 22359 kPa	240.226 kg/m3	0.02399
293.12 K, 24666 kPa	260.273 kg/m3	0.0249
293.13 K, 14176 kPa	160.309 kg/m3	0.02101
293.14 K, 1741.7 kPa	20.088 kg/m3	0.01775
293.14 K, 5190.1 kPa	60.028 kg/m3	0.01841
293.14 K, 5191.3 kPa	60.033 kg/m3	0.0184
293.14 K, 6919.8 kPa	79.938 kg/m3	0.01881
293.14 K, 6919.9 kPa	79.937 kg/m3	0.01881
293.14 K, 18079 kPa	200.088 kg/m3	0.02238
293.15 K, 168.17 kPa	1.9327 kg/m3	0.01754
293.15 K, 257.03 kPa	2.9592 kg/m3	0.01755
293.15 K, 257.04 kPa	2.9569 kg/m3	0.01755
293.15 K, 260.16 kPa	2.9879 kg/m3	0.01754
293.15 K, 348.59 kPa	4.0063 kg/m3	0.01757
293.15 K, 348.6 kPa	4.0116 kg/m3	0.01756
293.15 K, 434.63 kPa	4.9978 kg/m3	0.01756
293.15 K, 438.44 kPa	5.0442 kg/m3	0.01758
293.15 K, 438.45 kPa	5.045 kg/m3	0.01758
293.15 K, 865.03 kPa	9.9564 kg/m3	0.01763
293.15 K, 865.04 kPa	9.9572 kg/m3	0.01763
293.15 K, 867.69 kPa	9.9877 kg/m3	0.01763
293.15 K, 3452.3 kPa	39.892 kg/m3	0.01805
293.15 K, 8683.4 kPa	100.04 kg/m3	0.01928
293.16 K, 87.06 kPa	1.0006 kg/m3	0.0175
293.16 K, 174.08 kPa	2.0011 kg/m3	0.01753
293.16 K, 6917.3 kPa	79.905 kg/m3	0.01881
293.16 K, 8683.4 kPa	100.03 kg/m3	0.01928
293.16 K, 10467 kPa	120.042 kg/m3	0.01983
293.16 K, 10724 kPa	122.91 kg/m3 and 122.9 kg/m3	0.01987
293.16 K, 20166 kPa	220.109 kg/m3	0.02316
293.16 K, 27067 kPa	279.903 kg/m3	0.02585
293.16 K, 30306 kPa	304.692 kg/m3	0.02713
293.17 K, 347.38 kPa	3.995 kg/m3	0.01756
293.17 K, 434.86 kPa	5.0007 kg/m3	0.01757
293.17 K, 30306 kPa	304.691 kg/m3	0.02714
293.18 K, 69.62 kPa	0.79943 kg/m3	0.01749
423.09 K, 1261.4 kPa	9.9995 kg/m3	0.02309
423.09 K, 2533.5 kPa	20.001 kg/m3	0.0232
423.09 K, 7760.6 kPa	60.009 kg/m3	0.02382
423.09 K, 19172 kPa	140.043 kg/m3	0.02569
423.09 K, 25569 kPa	180.07 kg/m3	0.02695
423.1 K, 377.31 kPa	2.9994 kg/m3	0.02301
423.1 K, 629.65 kPa	5.0007 kg/m3	0.02304
423.1 K, 5117.5 kPa	40.01 kg/m3	0.02347
423.1 K, 22320 kPa	160.186 kg/m3	0.02629
423.11 K, 100.56 kPa	0.79993 kg/m3	0.02294
423.11 K, 125.69 kPa	0.99956 kg/m3	0.02295
423.11 K, 251.45 kPa	1.9998 kg/m3	0.02299
423.11 K, 10470 kPa	79.969 kg/m3	0.0242
423.11 K, 13263 kPa	99.939 kg/m3	0.02464
423.12 K, 503.26 kPa	3.9997 kg/m3	0.02303
423.12 K, 16171 kPa	120.044 kg/m3	0.02513
423.15 K, 30228 kPa	206.995 kg/m3	0.02791
423.15 K, 30257 kPa	207.176 kg/m3	0.02792
423.16 K, 30225 kPa	206.975 kg/m3	0.02791
